Reference: patent US20260242402A1, “PRODRUGS OF STAT3 INHIBITORS” (Tvardi Operating Company, Inc., priority 2022, published 2026)
≈ marks a conversion by molar mass, not a printed value. Counter-ions that a name gives are not always drawn. Like-named read-outs stand apart in the source and are kept apart here. Values belong to the compound of their own block, whether it stands above or below them.

What was measured:
[1] = male, SD, rat, in vivo, po
[2] = male, cynomolgus monkey, in vivo, po
[3] = physchem; settings: thermodynamic from solid
[4] = Solubility of TTI-101 as described in the text; assay type: physicochemical; settings: aqueous solutions
[5] = in vivo; settings: rat
[6] = Pharmacokinetics in monkeys (TTI-101 in plasma by LC-MS/MS); settings: male, cynomolgus monkey, iv, 26 mg/kg
[7] = not given; remark: listed apart in the source
[8] = in vitro; settings: human, plasma
[9] = physchem; settings: buffer, pH 7.4
[10] = pH 2, aqueous buffer, Solubility (pH = 2.0)

SMILES: COc1ccc(S(=O)(=O)Nc2cc(-c3c(O)ccc4ccccc34)c(OP(=O)(O)O)c3ccccc23)cc1 [Compound 9, 2-hydroxy-4′-((4-methoxyphenyl)sulfonamido)-[1,2′-binaphthalen]-1′-yl dihydrogen phosphate]
Aqueous Stability (pH = 2.0) (pH 2): Stable
Aqueous Stability (pH = 3.5) (pH 3.5): Stable
Aqueous Stability (pH = 7.4) (in words) (pH 7.4): Stable
F % (bioavailability, calculated on dose levels) [1]: 58.5%
T1/2 [1]: 2.0 ± 0.4 h
Tmax [1]: 1.8 ± 1.7 h
AUClast ([1]; 22.4 mg/kg): 37775 ± 14217 ng·h/mL
F % (bioavailability, calculated on dose levels) [2]: 81.3%
T1/2 [2]: 6.7 ± 1.4 h
Tmax [2]: 1.7 ± 0.6 h
AUClast ([2]; 24.3 mg/kg): 75704 ± 14050 ng·h/mL
solubility [3, 10]: 1530 µg/mL
solubility ([3]; pH 7.4, aqueous buffer, Solubility (pH = 7.4)): 6160 µg/mL

Solubility (in words) [4]: insoluble in aqueous solutions
AUC(0-t) ([5]; male, SD, iv, 21.5 mg/kg): 72400 ± 15100 ng·h/mL
half-life ([5]; male, SD, iv, 21.5 mg/kg): 2.8 ± 0.6 h
bioavailability ([5]; po): 40.4%
AUC(0-t) [6]: 116000 ± 7170 ng·h/mL
half-life [6]: 2.4 ± 0.1 h
SMILES: COc1ccc(S(=O)(=O)Nc2cc(-c3c(O)ccc4ccccc34)c(O)c3ccccc23)cc1 [TTI-101, N-(1′,2-dihydroxy-[1,2′-binaphthalen]-4′-yl)-4-methoxybenzenesulfonamide]

SMILES: COc1ccc(S(=O)(=O)Nc2cc3c(c4ccccc24)OP(=O)(O)Oc2ccc4ccccc4c2-3)cc1 [Compound 9A, N-((6)-6-hydroxy-6-oxidodinaphtho[1,2-d:1′,2′-f][1,3,2]dioxaphosphepin-15-yl)-4-methoxybenzenesulfonamide]
Solubility (pH = 7.4) [7]: 37, 12 ug/mL
Aqueous Stability (pH = 2.0) (pH 2): Stable
Aqueous Stability (pH = 3.5) (pH 3.5): Stable
Aqueous Stability (pH = 7.4) (in words) (pH 7.4): Stable
F % (bioavailability, calculated on dose levels) [2]: 6.7%
Tmax [2]: 8.0 ± 0 h
AUClast ([2]; 53.5 mg/kg): 5203 + 1048 ng*h/mL
solubility [3, 10]: 56 µg/mL (≈ 105 µM)

SMILES: CNCCCN(C)C(=O)Oc1c(-c2c(O)ccc3ccccc23)cc(NS(=O)(=O)c2ccc(OC)cc2)c2ccccc12 [Compound 4, 2-hydroxy-4′-((4-methoxyphenyl)sulfonamido)-[1,2′-binaphthalen]-1′-yl methyl(3-(methylamino)propyl)carbamate hydrochloride]
Aqueous Stability (pH = 2.0) (phosphate buffer pH 2.0, 37° C., up to 1440 minutes): Stable
Aqueous Stability (pH = 3.5) (phosphate buffer pH 3.5, 37° C., up to 1440 minutes): Stable
Aqueous Stability (pH = 7.4) (in words) (phosphate buffer pH 7.4, 37° C., up to 1440 minutes): Unstable;
half-life at 2 µM [8]: 4.3 min
half-life at 2 µM [9]: 1 h
